Test results from patent US9732094B2, “Arylquinazolines” (Merck Patent GmbH, priority 2013, dated 2017).
Where two headings read alike, the source gives them in different places.

Columns and labels:
DNA-PK = DNA-PK (Homo sapiens (Human), UniProt P78527); test: DNA-PK assay (biochemical), flashplate 33P-ATP kinase assay
Method in brief: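 Radiometric kinase reaction in streptavidin-coated flashplates, stopped with 200 mM EDTA, then 30 min room-temperature incubation and saline washes.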

[1] = biological target: DNA-PK phosphorylation at serine 2056 (Homo sapiens (Human), UniProt P78527); test: DNA-PK phosphorylation at serine 2056 (cellular), bleomycin-treated HCT116 cells, ELISA; type: cell-based; details: read-out: IC50 pDNA-PK
Method in brief: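 HCT116, MEM alpha + 10% FCS, 37 °C/10% CO2, seeded o/n. Cpd + 10 μM bleomycin, 6 h. ELISA, chemiluminescence; phospho/total DNA-PKcs ratio, DMSO = blank.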

Kv11.1 (hERG) = Kv11.1 (hERG) (Homo sapiens (Human), UniProt Q12809); test: Kv11.1 (hERG) ion channel activity (patch clamp assay), HEK293 cells transfected with hERG gene
Description: C) Kv11.1 (hERG) Ion Channel Activity (Patch Clamp Assay)
The patch-clamp measurement was carried out at room temperature in whole-cell configuration on human embryonic kidney cells (HEK293) which have been transfected in a stable manner with the hERG gene.
The whole-cell configurations were carried out using an automated patch clamp device (Patchliner™, Nanion Technologies, Munich). […] The glass chip has a hole of defined size to which the cell is transferred into the Gigaseal by application of a reduced pressure and brought into the whole-cell configuration. Buffer, cell suspension and test substances were added to microchannels of the chip using a Teflon-coated pipette. The cells were clamped to a holding potential of −80 mV. For measurement of substance-promoted inhibition of the Kv11.1 channel, the following voltage protocol was applied at 10-second intervals: 51 ms/−80 mV, 500 ms/+40 mV, 500 ms/−40 mV, 200 ms/−80 mV. The leakage current is subtracted by means of the P4 method. The cells were resuspended in extracellular buffer (EC) and applied to the chip. After the cell had been collected, the seal was improved by addition of a seal enhancer buffer. As soon as the whole-cell configuration had been reached, the seal enhancer buffer was washed out and replaced by extracellular buffer. The measurement started in EC for 1.5 min. DMSO (vehicle control, 0.1% of DMSO) was then applied, and the control current was recorded for 3 min. The test substance was subsequently added twice in the same concentration, and the potassium current was measured for 3.5 min in each case.
The reference substance used was the Kv11.1 (hERG) ion channel blocker quinidine. The effects of test substances and quinidine were standardised to the associated vehicle control. The effect on the Kv11.1 (hERG) channel activity was assessed from the potassium current at −40 mV. For the calculation, the current was evaluated for the respective final trace.
During the measurement, an aliquot of the test substance was taken for concentration determination. The sample was measured immediately by HPLC, and the final concentration was determined from a calibration curve.

[2] = cellular, HCT116 cells, 10 μM bleomycin, six hours
[3] = Ki [Kv1.11 hERG], patch clamp, HEK293 transfected with hERG gene
[4] = cellular DNA-PK phosphorylation at serine 2056, HCT116
[5] = read-out: Ki [Kv1.11 hERG], hERG patch clamp assay (cells without asterisk)
[6] = read-out: Ki [Kv1.11 hERG], patch clamp, HEK293 transfected with hERG gene
[7] = read-out: Ki [Kv1.11 hERG], Table 5
[8] = Ki [Kv1.11 hERG], hERG patch clamp assay (cells without asterisk)

Chain of Kv11.1 (hERG) (Q12809 whole entry): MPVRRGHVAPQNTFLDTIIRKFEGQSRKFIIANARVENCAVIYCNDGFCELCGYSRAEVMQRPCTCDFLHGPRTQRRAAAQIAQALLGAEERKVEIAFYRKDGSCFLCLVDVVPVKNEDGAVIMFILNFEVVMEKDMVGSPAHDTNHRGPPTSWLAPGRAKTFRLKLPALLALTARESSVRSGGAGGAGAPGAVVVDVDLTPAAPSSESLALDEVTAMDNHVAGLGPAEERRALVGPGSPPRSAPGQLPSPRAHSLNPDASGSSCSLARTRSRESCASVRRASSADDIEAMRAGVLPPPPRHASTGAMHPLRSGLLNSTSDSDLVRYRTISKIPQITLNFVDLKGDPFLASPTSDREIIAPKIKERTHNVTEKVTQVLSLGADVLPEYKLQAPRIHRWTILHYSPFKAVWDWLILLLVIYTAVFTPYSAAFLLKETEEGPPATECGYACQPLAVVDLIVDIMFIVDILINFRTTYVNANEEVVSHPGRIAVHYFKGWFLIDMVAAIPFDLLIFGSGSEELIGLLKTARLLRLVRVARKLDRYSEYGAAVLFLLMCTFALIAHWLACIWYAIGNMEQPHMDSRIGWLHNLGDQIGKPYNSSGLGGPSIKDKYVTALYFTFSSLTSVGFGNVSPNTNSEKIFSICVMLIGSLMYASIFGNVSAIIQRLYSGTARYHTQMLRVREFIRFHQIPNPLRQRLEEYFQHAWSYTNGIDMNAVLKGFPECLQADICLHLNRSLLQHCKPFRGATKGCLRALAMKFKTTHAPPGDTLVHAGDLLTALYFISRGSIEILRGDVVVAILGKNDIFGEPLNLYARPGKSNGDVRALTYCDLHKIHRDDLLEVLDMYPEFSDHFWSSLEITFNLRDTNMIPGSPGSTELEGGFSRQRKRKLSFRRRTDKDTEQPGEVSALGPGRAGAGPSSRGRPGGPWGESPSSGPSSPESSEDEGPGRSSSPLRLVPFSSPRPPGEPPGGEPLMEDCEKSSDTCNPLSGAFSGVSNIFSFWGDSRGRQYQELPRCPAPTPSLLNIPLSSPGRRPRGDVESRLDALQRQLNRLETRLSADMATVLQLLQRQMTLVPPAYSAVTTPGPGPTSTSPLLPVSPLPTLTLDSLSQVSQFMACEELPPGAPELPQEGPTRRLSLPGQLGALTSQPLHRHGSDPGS

Row | IC50 (DNA-PK; enzymatic, 5 μM ATP) [µM] | IC50 [1, 2] [µM] | IC50 (DNA-PK; biochemical DNA-PK assay) [µM] | IC50 [1, 4] [µM] | Compound | Ki (Kv11.1 (hERG); [5]) [µM] | further results
1 | 0.003 to 0.007 | < 0.5 | – | – | OC(c1ccc(Cl)nn1)c1cc(-c2ncnc3cc(N4CCOCC4)ccc23)c(F)cc1Cl (stereo not drawn) [Example 41, [2-Chloro-4-fluoro-5-(7-morpholin-4-yl-quinazolin-4-yl)phenyl]-(6-chloro-pyridazin-3-yl)methanol] | – | Ki (Kv11.1 (hERG); [3]): 15 to 25 µM
2 | – | – | < 0.003 | < 0.5 | Cn1c(C(O)c2ccc(F)c(-c3ncnc4cc(N5CCOCC5)ccc34)c2)cccc1=O (stereo not drawn) [Example 376, 6-{[4-Fluoro-3-(7-morpholin-4-yl-quinazolin-4-yl)-phenyl]hydroxy-methyl}-1-methyl-1H-pyridin-2-one] | > 25 | –
3 | – | – | 0.007 to 0.03 | 0.5 to 5 | Cc1nccnc1C(O)c1cc(-c2ncnc3cc(N4CCOCC4)cnc23)c(F)cc1Cl (stereo not drawn) [Example 240, [2-Chloro-4-fluoro-5-(7-morpholin-4-yl-pyrido[3,2-d}-pyrimidin-4-yl)-phenyl]-(3-methyl-pyrazin-2-yl)-methanol] | > 25 | –
4 | < 0.003 | < 0.5 | – | – | COc1cnc(Cl)c(C(O)c2ccc(F)c(-c3ncnc4cc(N5CCOCC5)ccc34)c2)c1 (stereo not drawn) [Example 22, (2-Chloro-5-methoxy-pyridin-3-yl)-[4-fluoro-3-(7-morpholin-4-yl-quinazolin-4-yl)phenyl]-methanol] | – | Ki (Kv11.1 (hERG); [6]): < 10 µM
5 | – | – | < 0.003 | < 0.5 | OC(c1ccc(F)c(-c2ncnc3cc(N4CCOCC4)ccc23)c1)c1nccc2ccoc12 (stereo not drawn) [Example 328, [4-Fluoro-3-(7-morpholin-4-yl-quinazolin-4-yl)-phenyl)furo[2,3-c]-pyridin-7-ylmethanol] | < 10 | –
6 | – | – | < 0.003 | 0.5 to 5 | O=c1ccc(C(O)c2ccc(F)c(-c3ncnc4cc(N5CCOCC5)ccc34)c2)n[nH]1 (stereo not drawn) [Example 367, 6-{[4-Fluoro-3-(7-morpholin-4-yl-quinazolin-4-yl)-phenyl]hydroxy-methyl}-2H-pyridazin-3-one] | > 25 | –
7 | – | – | – | – | Cc1nc(C(O)c2cnc(F)c(-c3ncnc4cc(N5CCOCC5)ncc34)c2)sc1C (stereo not drawn) [Example 196, (4,5-Dimethyl-thiazol-2-yl)-[6-fluoro-5-(7-morpholin-4-yl-pyrido[4,3-d)-pyrimidin-4-yl)-pyridin-3-yl]-methanol] | – | IC50 (DNA-PK; Table 5): 0.007 to 0.03 µM; IC50 ([1]; Table 5, HCT116 cells): 10 to 30 µM; Ki (Kv11.1 (hERG); [7]): > 25 µM
8 | – | – | 0.007 to 0.03 | 10 to 30 | Cc1nccnc1C(O)c1ccc(F)c(-c2ncnc3cc(N4CCOCC4)c(F)cc23)c1 (stereo not drawn) [Example 283, [4-Fluoro-3-(6-fluoro-7-morpholin-4-yl-quinazolin-4-yl)-phenyl]-(3-methyl-pyrazin-2-yl)-methanol] | > 25 | –
9 | – | – | < 0.003 | < 0.5 | OC(c1ccc(F)c(-c2ncnc3cc(N4CCOCC4)ccc23)c1)c1nncc2ccsc12 (stereo not drawn) [Example 332, [4-Fluoro-3-(7-morpholin-4-yl-quinazolin-4-yl)-phenyl]thieno[2,3-d}-pyridazin-7-yl-methanol] | – | Ki (Kv11.1 (hERG); [8]): 15 to 25 µM
10 | 0.003 to 0.007 | 0.5 to 5 | – | – | NC(=O)c1ccc(C(O)c2cc(-c3ncnc4cc(N5CCOCC5)ccc34)c(F)cc2Cl)nn1 (stereo not drawn) [Example 62, 6-{[2-Chloro-4-fluoro-5-(7-morpholin-4-yl-quinazolin-4-yl)phenyl]-hydroxymethyl}-pyridazine-3-carboxylic acid amide] | – | Ki (Kv11.1 (hERG); [6]): > 25 µM
11 | < 0.003 | < 0.5 | – | – | O=c1ccc(C(O)c2cc(-c3ncnc4cc(N5CCOCC5)ccc34)c(F)cc2Cl)n[nH]1 (stereo not drawn) [Example 92, 3-[[2-Chloro-4-fluoro-5-(7-morpholino-quinazolin-4-yl)phenyl]-hydroxymethyl]-1H-pyridazin-6-one] | – | Ki (Kv11.1 (hERG); [6]): > 25 µM
12 | – | – | – | – | OC(c1cc(F)c(F)c(-c2ncnc3cc(N4CCOCC4)ccc23)c1)c1nccs1 (stereo not drawn) [Example 171, [3,4-Difluoro-5-(7-morpholin-4-yl-quinazolin-4-yl)-phenyl]thiazol-2-yl-methanol] | – | IC50 (DNA-PK; Table 5): < 0.003 µM; IC50 ([1]; Table 5, HCT116 cells): 0.5 to 5 µM; Ki (Kv11.1 (hERG); [7]): < 10 µM
13 | < 0.003 | < 0.5 | – | – | CC(C#N)Oc1ccc(C(O)c2cc(-c3ncnc4cc(N5CCOCC5)ccc34)c(F)cc2Cl)nn1 (stereo not drawn) [Example 101, 2-(6-{[2-Chloro-4-fluoro-5-(7-morpholin-4-yl-quinazolin-4-yl)-phenyl)hydroxy-methyl}pyridazin-3-yloxy)propionitrile] | – | Ki (Kv11.1 (hERG); [3]): 10 to 15 µM
14 | 0.003 to 0.007 | 10 to 30 | – | – | COC(=O)COc1ccc(C(O)c2cc(-c3ncnc4cc(N5CCOCC5)ccc34)c(F)cc2Cl)nn1 (stereo not drawn) [Example 114, (6-{[2-Chloro-4-fluoro-5-(7-morpholin-4-yl-quinazolin-4-yl)-phenyl]hydroxy-methyl}pyridazin-3-yl-oxy)acetic acid methyl ester] | – | Ki (Kv11.1 (hERG); [6]): > 25 µM
15 | – | – | < 0.003 | < 0.5 | COc1ccc(C(O)c2cc(-c3ncnc4cc(N5CCOCC5)cc(F)c34)c(F)cc2Cl)nn1 (single isomer, unassigned) [Example 271, [2-Chloro-4-fluoro-5-(5-fluoro-7-morpholin-4-yl-quinazolin-4-yl)-phenyl]-(6-methoxy-pyridazin-3-yl)-methanol] | > 25 | –
16 | – | – | 0.007 to 0.03 | 0.5 to 5 | Cn1cnc2c(C(O)c3cc(-c4ncnc5cc(N6CCOCC6)ccc45)ccc3Cl)ncnc21 (stereo not drawn) [Example 371, [2-Chloro-5-(7-morpholin-4-yl-quinazolin-4-yl)-phenyl]-(9-methyl-9H-purin-6-yl)-methanol] | – | Ki (Kv11.1 (hERG); [8]): 10 to 15 µM
17 | – | – | > 0.03 | 10 to 30 | COc1ccc(C(C(N)=O)c2cc(-c3ncnc4cc(N5CCOCC5)ccc34)ccc2Cl)nn1 (stereo not drawn) [Example 310, 2-[2-Chloro-5-(7-morpholin-4-yl-quinazolin-4-yl)-phenyl]-2-(6-methoxy-pyridazin-3-yl)acetamide] | – | Ki (Kv11.1 (hERG); [8]): 15 to 25 µM
18 | 0.003 to 0.007 | 0.5 to 5 | – | – | COc1ccc(C(OC)c2ccc(F)c(-c3ncnc4cc(N5CCOCC5)ccc34)c2)nn1 (stereo not drawn) [Example 73, 4-{2-Fluoro-5-[methoxy-(6-methoxy-pyridazin-3-yl)methyl]phenyl}-7-morpholin-4-yl-quinazoline] | – | Ki (Kv11.1 (hERG); [6]): > 25 µM
19 | – | – | > 0.03 | 10 to 30 | COc1ccc(C(O)c2cc(-c3ncnc4cc(N5CCOCC5)cnc34)c(F)cc2Cl)nn1 (stereo not drawn) [Example 228, [2-Chloro-4-fluoro-5-(7-morpholin-4-yl-pyrido[3,2-d}-pyrimidin-4-yl)-phenyl]-(6-methoxy-pyridazin-3-yl)-methanol] | > 25 | –
20 | – | – | 0.007 to 0.03 | 10 to 30 | COc1ccc(C(C(N)=O)c2ccc(F)c(-c3ncnc4cc(N5CCOCC5)ccc34)c2)nn1 (stereo not drawn) [Example 308, 2-[4-Fluoro-3-(7-morpholin-4-yl-quinazolin-4-yl)-phenyl]-2-(6-methoxypyridazin-3-yl)acetamide] | > 25 | –
21 | 0.003 to 0.007 | 10 to 30 | – | – | O=C(O)c1ccc(C(O)c2cc(-c3ncnc4cc(N5CCOCC5)ccc34)c(F)cc2Cl)nn1 (stereo not drawn) [Example 55, 6-{[2-Chloro-4-fluoro-5-(7-morpholin-4-yl-quinazolin-4-yl)phenyl]-hydroxymethyl}-pyridazine-3-carboxylic acid] | – | Ki (Kv11.1 (hERG); [6]): > 25 µM
22 | – | – | 0.007 to 0.03 | 0.5 to 5 | Cn1cnc2c(C(O)c3cc(-c4ncnc5cc(N6CCOCC6)ccc45)ccc3F)ncnc21 (stereo not drawn) [Example 370, [2-Fluoro-5-(7-morpholin-4-yl-quinazolin-4-yl)-phenyl]-(9-methyl-9H-purin-6-yl)-methanol] | > 25 | –
23 | – | – | 0.003 to 0.007 | 0.5 to 5 | COc1nccnc1C(O)c1cc(-c2ncnc3cc(N4CCOCC4)ccc23)ccc1F (stereo not drawn) [Example 394, [2-Fluoro-5-(7-morpholin-4-yl-quinazolin-4-yl)-phenyl]-(3-methoxy-pyrazin-2-yl)-methanol] | < 10 | –
24 | < 0.003 | < 0.5 | – | – | Cc1cnc(C)c(C(O)c2cc(-c3ncnc4cc(N5CCOCC5)ccc34)c(F)cc2F)n1 (stereo not drawn) [Example 88] | – | Ki (Kv11.1 (hERG); [3]): 15 to 25 µM
25 | – | – | > 0.03 | 10 to 30 | Cn1nc(C(C(N)=O)c2ccc(F)c(-c3ncnc4cc(N5CCOCC5)ccc34)c2)ccc1=O (stereo not drawn) [Example 317, 2-[4-Fluoro-3-(7-morpholin-4-yl-quinazolin-4-yl)-phenyl]-2-(1-methyl-6-oxo-1,6-dihydro-pyridazin-3-yl)-acetamide] | – | Ki (Kv11.1 (hERG); [8]): 15 to 25 µM
26 | – | – | < 0.003 | < 0.5 | Cc1nccnc1C(O)c1ccc(F)c(-c2ncnc3cc(N4CCOCC4)cnc23)c1 (stereo not drawn) [Example 237, [4-Fluoro-3-(7-morpholin-4-ylpyrido[3,2-d]pyrimidin-4-yl)phenyl]-(3-methylpyrazin-2-yl)methanol] | – | Ki (Kv11.1 (hERG); [8]): 10 to 15 µM
27 | < 0.003 | 5 to 10 | – | – | C#Cc1nc(-c2cc(C(O)c3nccs3)ccc2F)c2ccc(N3CCOCC3)cc2n1 (stereo not drawn) [Example 215, [3-(2-Ethynyl-7-morpholin-4-yl-quinazolin-4-yl)-4-fluorophenyl]-thiazol-2-yl-methanol] | – | Ki (Kv11.1 (hERG); [6]): < 10 µM

Row | Compound | IC50 (DNA-PK; enzymatic, 5 μM ATP) [µM] | IC50 [1, 2] [µM] | IC50 (DNA-PK; biochemical DNA-PK assay) [µM] | IC50 [1, 4] [µM] | Ki (Kv11.1 (hERG); [5]) [µM] | further results
28 | [2H]C1([2H])OC([2H])([2H])C([2H])([2H])N(c2ccc3c(-c4cc(C(O)c5nccnc5C)ccc4F)ncnc3c2)C1([2H])[2H] (stereo not drawn) [Example 238, [4-Fluoro-3-[7-(2,2,3,3,5,5,6,6-octadeuteriomorpholin-4-yl)quinazolin-4-yl]phenyl]-(3-methyl-pyrazin-2-yl)-methanol] | – | – | < 0.003 | < 0.5 | – | Ki (Kv11.1 (hERG); [8]): 15 to 25 µM
